The target in the test is T1, rat FAAH (Rattus norvegicus, UniProt P97612).
T1 construct: Five rat livers are homogenized in five fold volume with ice cold Tris; from tissue; host or cells: rat liver; 40,000 g membrane pellet solubilised in 1% Triton X-100
T1 sequence (P97612 1-579): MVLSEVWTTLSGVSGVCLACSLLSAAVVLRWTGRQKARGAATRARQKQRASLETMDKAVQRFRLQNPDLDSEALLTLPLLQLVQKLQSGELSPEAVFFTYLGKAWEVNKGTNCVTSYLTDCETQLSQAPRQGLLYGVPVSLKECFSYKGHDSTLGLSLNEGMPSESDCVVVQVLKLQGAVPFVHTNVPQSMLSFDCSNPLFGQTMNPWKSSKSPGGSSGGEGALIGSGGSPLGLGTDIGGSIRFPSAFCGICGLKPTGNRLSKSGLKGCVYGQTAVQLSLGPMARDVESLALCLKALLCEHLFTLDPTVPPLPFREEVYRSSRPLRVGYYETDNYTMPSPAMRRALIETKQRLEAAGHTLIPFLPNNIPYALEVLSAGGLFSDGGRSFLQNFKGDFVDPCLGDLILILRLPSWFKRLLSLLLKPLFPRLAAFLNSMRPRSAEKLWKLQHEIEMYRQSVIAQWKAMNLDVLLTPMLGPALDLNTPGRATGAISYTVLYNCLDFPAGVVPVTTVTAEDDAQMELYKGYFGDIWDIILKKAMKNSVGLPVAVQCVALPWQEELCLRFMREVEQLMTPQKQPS
Nature of the test: Rat FAAH biochemical inhibition assay (AMC arachidonoyl amide fluorescence). An excerpt:
The following assays may be used to determine the inhibition of FAAH by the compounds of the present invention: (1) a fluorescence-based assay for fatty acid amide hydrolase compatible with high-throughput screening as described in Manjunath et al., Analytical Biochemistry (2005) 343:143-151; and (2) a high-throughput screening for the discovery of inhibitors of fatty acid amide hydrolase using a microsome-based fluorescent assay. Wang et al., Biomolecular Screening (2006) 1-9.
Rat FAAH Preparation: Five rat livers are homogenized in five fold volume with ice cold Tris (20 mM pH 8.0) and 0.32 M Sucrose solution via an Ultra Turrax T25 homogenizer. All subsequent preparation steps are carried out at 4° C. The homogenate is centrifuged at 6000 g, for 20 minutes and the pellet, containing nuclear debris and mitochondria is discarded. The supernatant is centrifuged at 40,000 g for 30 minutes. […]
Rat FAAH Biochemical Inhibition Assay; Materials and methods: Rat FAAH biochemical assays are carried out in a 96 well flat bottom black non-treated polystyrene plates (Corning Costar Catalogue #3915). […] FAAH substrate—AMC Arachidonoyl Amide (Cayman Chemicals Company, Catalogue #10005098) The reaction is read in an Envision microtiter plate reader [Excitation filter 355 nm (40 nm bandpass); Emmision filter 460 nm (25 nm bandpass)]. The raw fluorescence is plotted on the y axis and the inhibitor concentration on the x axis to give a dose response inhibition curve. […]
Rat FAAH Biochemical Inhibition Assay; Experimental Protocol: The principle of this assay is the hydrolysis of AMC-Arichodonoyl, a fluorescent analogue of Anandamide, which results in the formation of Arachidonic acid and AMC. The formation of AMC results in an increase in fluorescence (see, for example, Manjunath et al., Analytical Biochemistry (2005) 343:143-151; and Wang et al., Bimolecular Screening (2006) 1-9).
A 0.49 mg/ml Rat liver FAAH solution is made up in FAAH reaction buffer, and 78 ul pipetted into a 96 well plate. […] The microtiter plate is read in the envision plate reader. […]

Molecules are shown by their SMILES.

For the setting “Table 1, rat FAAH (asterisk)”, `OB(O)c1cc2ccccc2s1` [Compound I-127] gave a Ki of 10 to 1000 nM.

In turn, `CCCCCCOc1ccc(B(O)O)cc1` [Compound I-130] showed a Ki (Table 1, rat FAAH (asterisk)) of 10 to 1000 nM.

Turning to `CCCCOc1cccc(B(O)O)c1` [II-315], under “Table 2, rat FAAH (asterisk)”, the Ki was in the range of 10 to 1000 nM.

The values are drawn from patent publication US8329675B2, “Inhibitors of fatty acid amide hydrolase” (Infinity Pharmaceuticals, Inc., priority 2006, dated 2012).
